Source: ChEMBL document CHEMBL1121962, “Synthesis of 4-amino-1-beta-D-ribofuranosyl-1H-pyrrolo[2,3-b]pyridine (1-deazatubercidin) as a potential antitumor agent” (J Med Chem, 1982)
Calls of active or inactive are those of the source. The calls are words filed in the database; no cut-off is given here.

Legend:
[1] = species: Mus musculus; assay: Effect tested against murine sarcoma S-180 cells; Inactive; type: functional, cell-based
[2] = species: Mus musculus; assay: Effect tested against murine leukemia L1210 cells; Inactive; type: functional, cell-based

## Nc1ccnc2c1ccn2C1O[C@H](CO)[C@@H](O)[C@H]1O (some centres not stated)
[1]
  Activity: inactive
[2]
  Activity: inactive
